The values that follow come from US10294290B2, “Polypeptides derived from calcitonin receptors and methods of use” (The Research Foundation For The State University of New York, priority 2010, dated 2019).

Test [1] concerns immortalized human fetal osteoblast cell line, hFOB 1.19. Briefly: Bone matrix formation, Alizarin Red staining, differentiated osteoblasts. It is filed as cell-based. The conditions noted are these: for calcium deposits (Alizarin dye, fluorescent images): 12.5 μM. The method, then:
The effect of CRP on differentiated osteoblasts was analyzed in an immortalized human fetal osteoblast cell line, hFOB 1.19. hFOB cells were incubated for 48 hours in increasing concentrations of CRP (4.6 μM, 9.2 μM, 13.8 μM and 18.4 μM). Bone matrix formation was assayed using a Millipore Osteogenesis Quantitation kit as described above. Phase contrast and fluorescent images of the Alizarin Red stained cells were acquired using an Olympus-IMT microscope according to the manufacturer's (Millipore) specifications. […] Increased bone matrix deposition was also detectable by fluorescence microscopy. Non-amidated CRP had no effect on bone matrix formation.
The sequence specificity of the effect of CRP on bone matrix formation was evaluated using the scrambled peptide, {pGln}NFWQWWIQARKQ (SEQ ID NO:51), which was amidated at the C-terminus. hFOB cells were treated as described above with 18.4 μM of the scrambled peptide, and bone matrix formation was assayed with the Millipore Osteogenesis Quantitation kit as described above.
In cell culture, we also studied the effect of amino acid substitutions in CRP on the formation of bone matrix. hFOB cells were treated with human CRP (KRQWAQFKIQWNQR; SEQ ID NO:42) and, separately, mouse CRP (KRQWTQFKIQWSQR; SEQ ID NO:43) before staining with Alizarin dye to identify the matrix that is formed. Fluorescent images were acquired using an Olympus-IMP microsope.

Test [2] deals with ovariectomized (OVX) rats. Description: Micro-CT of cortical bone from femoral midshafts. The class given is in vivo, Sprague Dawley rats. The settings on record: 15 μM (1 mL) intraperitoneal, five times per week for five weeks, vs vehicle, p<0.05 ANCOVA. On the procedure:
We performed a micro-CT analysis of cortical bone from the femoral midshafts of ovariectomized (OVX) rats treated with 50% DMSO (OVX Vehicle) or 15 μM rat CRP (OVX 15 μM) Sprague Dawley rats (n=12/group) were ovariectomized at 6 months of age and allowed to lose bone for one month prior to treatment. They were then administered vehicle or 15 μM CRP (1 mL), via intraperitoneal injection, five times per week for five weeks. The animals were then sacrificed and their femora were harvested. The femora were scanned using microCT (Scanco uCT40) and 1.8 mm-long mid-diaphyseal regions of interest were analyzed.

[ ]: non-standard residue; d: D form. pGlu = O=C1CC[C@@H](C(=O)O)N1

Turning to “KRQWTQFKIQWSQR (listed as Mus sp.) [mCRP]”, in test [1], the “calcium deposits (Alizarin dye, fluorescent images)” value is “produced calcium deposits”.
As for “KRQWAQFKIQWNQR (listed as Homo sapiens) [hCRP]”, the “calcium deposits (Alizarin dye, fluorescent images)” value in test [1] is “produced calcium deposits”.
Turning to “rat CRP: rat calcitonin receptor-derived polypeptide (rat homologue, SEQ ID NO:47, shown in FIG. 2) (KRQWAQFKIQWSHRWGRR; listed as Rattus norvegicus)”, in test [2], the average periosteal surface entry is listed as “significantly greater”, the average periosteal volume entry is given as “significantly greater”, the “average polar moment of inertia” value is “significantly greater” and the “maximum principal moment of inertia” value is listed as “significantly greater”. Besides, in test [2], the “minimum principal moment of inertia” value is “significantly greater”.
For the substance “{pGln}NFWQWWIQARKQ ([pGlu]NFWQWWIQARKQ-NH2; SMILES CC[C@H](C)[C@H](NC(=O)[C@H](Cc1c[nH]c2ccccc12)NC(=O)[C@H](Cc1c[nH]c2ccccc12)NC(=O)[C@H](CCC(N)=O)NC(=O)[C@H](Cc1c[nH]c2ccccc12)NC(=O)[C@H](Cc1ccccc1)NC(=O)[C@H](CC(N)=O)NC(=O)[C@@H]1CCC(=O)N1)C(=O)N[C@@H](CCC(N)=O)C(=O)N[C@@H](C)C(=O)N[C@@H](CCCNC(=N)N)C(=O)N[C@@H](CCCCN)C(=O)N[C@@H](CCC(N)=O)C(N)=O) [scrambled peptide, scrambled control peptide, same amino acids as CRP in scrambled order, reference compound]”, in test [1] (18.4 μM), the bone matrix formation entry is “did not induce bone matrix formation”.
